Measurements: ChEMBL document CHEMBL1153387 (J Med Chem, 2009)
The source made the active and inactive calls. No cut-off for these calls is given here. Starred links: 1 amine or outer side, 2 acyl side, 3 side chain; linkers in the order of their positions; H or OH if unused. Non-standard residues stand in square brackets, D forms with d. Residues, ends and D or L forms follow the SMILES beside them. *: point of attachment. NMeβ3hLys = CN([C@@H](CCCCN)CC(=O)[*:2])[*:1]; Pentanoyl(5-guanidino) = NC(N)=NCCCCC(=O)*; αMeR = C[C@](N)(CCCNC(=N)N)C(=O)O; Tle = CC(C)(C)[C@H](N)C(=O)O; β3hK = NCCCC[C@H](N)CC(=O)O; Ahp = NCCCCCCC(=O)O

Legend:
Serum [1] = test: Metabolic stability in human serum assessed as compound degradation rate at 1 mM by MALDI-TOF mass spectrometry assay; format: ADME, cell-free; conditions: 1000 µM
Serum [2] = test: Metabolic stability in rat serum assessed as compound degradation rate at 1 mM by MALDI-TOF mass spectrometry assay; format: ADME, cell-free; conditions: 1000 µM
[3] = Metabolic stability in rat serum assessed as half time of disappearance at 1 mM by MALDI-TOF mass spectrometry assay; format: ADME, cell-free; conditions: read-out: T50
[4] = Metabolic stability in human serum assessed as half time of disappearance at 1 mM by MALDI-TOF mass spectrometry assay; format: ADME, cell-free; conditions: read-out: T50
Rattus norvegicus [5] = test: Hypothermic activity in Sprague-Dawley rat assessed as time duration of maximal body temperature decrease at 5 mg/kg, ip; format: functional; conditions: route intraperitoneal
Rattus norvegicus [6] = test: Hypothermic activity in Sprague-Dawley rat assessed as decrease in core body temperature at 5 mg/kg, ip at time of maximal body temperature decrease; format: functional; conditions: route intraperitoneal
[7] = biological target: T1, Neurotensin receptor type 1 (Homo sapiens, UniProt P30989); test: Agonist activity at NTR1 in human HT-29 cells assessed as increase in intracellular calcium concentration by FLIPR assay; format: functional, cell-based
[8] = biological target: T1, Neurotensin receptor type 1; test: Displacement of [125I]I-Tyr(3)NT from human NTR1
[9] = biological target: T1, Neurotensin receptor type 1; test: Agonist activity at NTR1 in human HT-29 cells assessed as increase in intracellular calcium concentration in presence of NTR1 antagonist SR-48692 by FLIPR assay; format: functional, cell-based

T1 sequence (P30989 whole entry): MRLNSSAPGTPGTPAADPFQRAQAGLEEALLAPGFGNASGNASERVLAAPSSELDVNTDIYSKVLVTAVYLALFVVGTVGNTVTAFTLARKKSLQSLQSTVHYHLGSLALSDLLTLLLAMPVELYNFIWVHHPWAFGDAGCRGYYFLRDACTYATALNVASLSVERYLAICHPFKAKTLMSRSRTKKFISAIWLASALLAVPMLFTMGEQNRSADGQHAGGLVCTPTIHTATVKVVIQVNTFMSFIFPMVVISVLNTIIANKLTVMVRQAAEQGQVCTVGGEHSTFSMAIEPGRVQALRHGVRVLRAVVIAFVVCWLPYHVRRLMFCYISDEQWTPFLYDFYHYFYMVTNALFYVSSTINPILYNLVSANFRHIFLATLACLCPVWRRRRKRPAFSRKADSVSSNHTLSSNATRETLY

| Structure (SMILES) | Activity (Serum [1]) [µmol/min] | Activity (Serum [2]) [µmol/min] | half-life at 1000 µM [3] [h] | half-life at 1000 µM [4] [h] | Time (Rattus norvegicus [5]) [min] | Activity (Rattus norvegicus [6]) [°C] | EC50 [7] [nM] | IC50 [8] [nM] | Ki [8] [nM] | Activity [9] |
| --- | --- | --- | --- | --- | --- | --- | --- | --- | --- | --- |
| CC[C@H](C)[C@H](NC(=O)[C@H](Cc1ccc(O)cc1)NC(=O)[C@@H]1CCCN1C(=O)[C@H](CCCNC(=N)N)NC(=O)[C@@H](N)CCCNC(=N)N)C(=O)N[C@@H](CC(C)C)C(=O)O | 29.6 | 49.8 | 0.167 | 0.282 | – | – | – | – | – | – |
| CC[C@H](C)[C@H](NC(=O)[C@H](Cc1ccc(O)cc1)NC(=O)[C@@H]1CCCN1C(=O)[C@H](CCCN=C(N)N)NC(=O)[C@@H](N)CCCN=C(N)N)C(=O)N[C@@H](CC(C)C)C(=O)O | – | – | – | – | 300 | -0.55 | – | – | – | – |
| CC[C@H](C)[C@H](NC(=O)[C@H](Cc1ccc(O)cc1)NC(=O)[C@@H]1CCCN1C(=O)[C@H](CCCNC(=N)N)NC(=O)[C@H](CCCNC(=N)N)NC(C)=O)C(=O)N[C@@H](CC(C)C)C(=O)O | 0.701 | 2.38 | 3.5 | 11.9 | – | – | – | – | – | – |
| CC[C@H](C)[C@H](NC(=O)[C@H](Cc1ccc(O)cc1)NC(=O)[C@@H]1CCCN1C(=O)[C@H](CCCN=C(N)N)NC(=O)[C@H](CCCN=C(N)N)NC(C)=O)C(=O)N[C@@H](CC(C)C)C(=O)O | – | – | – | – | 90 | -0.71 | – | – | – | – |
| CC[C@@H](C)[C@H](NC(=O)[C@H](Cc1ccc(O)cc1)NC(=O)[C@@H]1CCCN1C(=O)[C@H](CCCNC(=N)N)NC(=O)[C@H](CCCNC(=N)N)NC)C(=O)N[C@@H](CC(C)C)C(=O)O | 0.593 | 1.92 | 4.33 | 14 | 120 | -1.55 | 0.853 | 0.383 | 0.29 | – |
| CC[C@@H](C)[C@H](NC(=O)[C@H](Cc1ccc(O)cc1)NC(=O)[C@@H]1CCCN1C(=O)[C@H](CCCNC(=N)N)NC(=O)[C@@](C)(N)CCCNC(=N)N)C(=O)N[C@@H](CC(C)C)C(=O)O | 0.444 | 2.28 | 3.65 | 18.8 | 150 | -0.28 | – | – | – | – |
| CC[C@@H](C)[C@H](NC(=O)[C@H](Cc1ccc(O)cc1)NC(=O)[C@@H]1CCCN1C(=O)[C@H](CCCN=C(N)N)NC(=O)[C@H](CCCN=C(N)N)N=[N+]=[N-])C(=O)N[C@@H](CC(C)C)C(=O)O | 1.65 | 3.53 | 2.35 | 5.05 | – | – | 0.78 | 0.97 | 0.73 | – |
| CC[C@@H](C)[C@H](NC(=O)[C@H](Cc1ccc(O)cc1)NC(=O)[C@@H]1CCCN1C(=O)[C@H](CCCNC(=N)N)NC(=O)[C@H](CCCNC(=N)N)N=[N+]=[N-])C(=O)N[C@@H](CC(C)C)C(=O)O | – | – | – | – | 240 | -1 | – | – | – | inactive |
| CC[C@@H](C)[C@H](NC(=O)[C@H](Cc1ccc(O)cc1)NC(=O)[C@@H]1CCCN1C(=O)[C@H](CCCNC(=N)N)NC(=O)CCCCNC(=N)N)C(=O)N[C@@H](CC(C)C)C(=O)O | 2.17 | 5.74 | 1.45 | 3.83 | 120 | -0.99 | 1.85 | 2.68 | 2.01 | – |
| CC(=O)N[C@@H](CCCNC(=N)N)C(=O)N[C@@H](CCCCN)C(=O)N1CCC[C@H]1C(=O)N[C@@H](Cc1c[nH]c2ccccc12)C(=O)N[C@H](C(=O)N[C@@H](CC(C)C)C(=O)O)C(C)(C)C (Ac-RKPW[Tle]L-OH) | 0.068 | 0.089 | 94.3 | 124 | 270 | -4.3 | 764 | 863 | 647 | – |
| CC(=O)N[C@@H](CCCCN)CC(=O)N[C@@H](CCCN=C(N)N)C(=O)N1CCC[C@H]1C(=O)N[C@@H](Cc1ccc(O)cc1)C(=O)N[C@H](C(=O)N[C@@H](CC(C)C)C(=O)O)C(C)(C)C (Ac-[β3hK]RPY[Tle]L-OH) | 0.153 | 0.146 | 57 | 54.5 | – | – | 57.7 | 181 | 136 | – |
| CC(=O)N[C@@H](CCCCN)CC(=O)N[C@@H](CCCNC(=N)N)C(=O)N1CCC[C@H]1C(=O)N[C@@H](Cc1ccc(O)cc1)C(=O)N[C@H](C(=O)N[C@@H](CC(C)C)C(=O)O)C(C)(C)C (Ac-[β3hK]RPY[Tle]L-OH) | – | – | – | – | 150 | -3.54 | – | – | – | – |
| CC(C)C[C@H](NC(=O)[C@@H](NC(=O)[C@H](Cc1c[nH]c2ccccc12)NC(=O)[C@@H]1CCCN1C(=O)[C@H](CCCCN)NC(=O)[C@@H](N)CCCN=C(N)N)C(C)(C)C)C(=O)O (H-RKPW[Tle]L-OH) | 31.8 | 37 | 0.225 | 0.263 | – | – | 217 | 403 | 303 | – |
| CC(C)C[C@H](NC(=O)[C@@H](NC(=O)[C@H](Cc1c[nH]c2ccccc12)NC(=O)[C@@H]1CCCN1C(=O)[C@H](CCCCN)NC(=O)[C@@H](N)CCCNC(=N)N)C(C)(C)C)C(=O)O (H-RKPW[Tle]L-OH) | – | – | – | – | 120 | -2.11 | – | – | – | – |
| CC(C)C[C@H](NC(=O)[C@@H](NC(=O)[C@H](Cc1ccc(O)cc1)NC(=O)[C@@H]1CCCN1C(=O)[C@H](CCCNC(=N)N)NC(=O)CCCCCCN)C(C)(C)C)C(=O)O (H-[Ahp]RPY[Tle]L-OH) | 0.204 | 0.111 | 74.8 | 41 | 90 | -2.58 | 25.8 | 3.99 | 2.99 | – |
| CC(C)C[C@H](NC(=O)[C@@H](NC(=O)[C@H](Cc1c[nH]c2ccccc12)NC(=O)[C@@H]1CCCN1C(=O)[C@H](CCCCN)NC(=O)[C@@](C)(N)CCCNC(=N)N)C(C)(C)C)C(=O)O (H-[αMeR]KPW[Tle]L-OH) | 0.064 | 0.095 | 87.8 | 132 | 120 | -4.28 | 1860 | 2900 | 2170 | – |
| CN[C@@H](CCCCN)CC(=O)N[C@@H](CCCN=C(N)N)C(=O)N1CCC[C@H]1C(=O)N[C@@H](Cc1ccc(O)cc1)C(=O)N[C@H](C(=O)N[C@@H](CC(C)C)C(=O)O)C(C)(C)C (NMeβ3hLys-RPY[Tle]L-OH) | 0.146 | 0.117 | 71.8 | 57.2 | – | – | 7.96 | 27 | 20.3 | – |
| CN[C@@H](CCCCN)CC(=O)N[C@@H](CCCNC(=N)N)C(=O)N1CCC[C@H]1C(=O)N[C@@H](Cc1ccc(O)cc1)C(=O)N[C@H](C(=O)N[C@@H](CC(C)C)C(=O)O)C(C)(C)C (NMeβ3hLys-RPY[Tle]L-OH) | – | – | – | – | 180 | -3.68 | – | – | – | – |
| CC(C)C[C@H](NC(=O)[C@@H](NC(=O)[C@H](Cc1c[nH]c2ccccc12)NC(=O)[C@@H]1CCCN1C(=O)[C@H](CCCCN)NC(=O)CCCCNC(=N)N)C(C)(C)C)C(=O)O ({Pentanoyl(5-guanidino)}-KPW[Tle]L-OH) | 0.081 | 0.078 | 108 | 103 | 240 | -5.02 | 783 | 842 | 631 | – |
| COc1cccc(OC)c1-c1cc(C(=O)NC2(C(=O)O)C3CC4CC(C3)CC2C4)nn1-c1ccnc2cc(Cl)ccc12 (stereo not given) [REMINERTANT] | – | – | – | – | – | – | – | 0.99 | – | – |
